Structures are written as SMILES. Values after ≈ are worked out from the molar mass of the structure shown. Values joined by “and” are separate entries in the source; they are usually repeats but may differ in a detail not shown here. Equal entries are not always repeated.

The source of these data is DBAASP.

Test systems include Aureobasidium pullulans; Escherichia coli K88; Escherichia coli UB1005; Acinetobacter baumannii; Escherichia coli 078; Escherichia coli K99; Escherichia coli K-12.
What all share (assay): ≥ marks a high value that may be exact or a test limit, other limits are often not marked, values filed in µg/mL are converted to µM
The subject of test [1] is Corynebacterium glutamicum ATCC 13032.
Test [2] concerns Escherichia coli ATCC 25922.
For test [3], the system named is Staphylococcus aureus ATCC 9144.
In test [4] the test system is Candida albicans ATCC 10231.
In test [5] the test system is Pseudomonas aeruginosa ATCC 27853.
The test system of test [6] is Listeria monocytogenes CGMCC 1.1075.
The subject of test [7] is Staphylococcus aureus ATCC 43300.
Test [8] relates to Staphylococcus epidermidis ATCC 12228.
The subject of test [9] is Bacillus cereus CGMCC 1.932.
The subject of test [10] is Salmonella enterica subsp. enterica serovar Typhimurium ATCC 14028.
Test [11] has as its system Salmonella enterica subsp. enterica serovar Pullorum ATCC 7913.
For test [12], the system named is Staphylococcus aureus ATCC 25923.
Test [13] deals with Pseudomonas aeruginosa PAO1.
For test [14], the system named is Salmonella typhimurium ATCC 7731.
The subject of test [15] is Enterococcus faecalis ATCC 29212.
For test [16], the system named is Bacillus subtilis CMCC 63501.
The subject of test [17] is Escherichia coli CVCC 1515.
In test [18] the test system is Staphylococcus aureus ATCC 29213.
Test [19] relates to Staphylococcus aureus JE2.
Test [20] has as its system Enterococcus faecium ATCC 51559.
In test [21] the test system is Pseudomonas aeruginosa KCTC 1637.
Test [22] has as its system Escherichia coli KCTC 1682.
The subject of test [23] is Staphylococcus epidermidis KCTC 1917.
In test [24] the test system is Staphylococcus aureus CCARM 3089.
For test [25], the system named is Staphylococcus aureus CCARM 3095.
The test system of test [26] is Staphylococcus aureus KCTC 1621.
Test [27] relates to Pseudomonas aeruginosa CCARM 2095.
In test [28] the test system is Salmonella typhimurium KCTC 1926.
Test [29] concerns Bacillus subtilis KCTC 3068.
The test system of test [30] is Staphylococcus aureus CCARM 3090.
Test [31] concerns Pseudomonas aeruginosa CCARM 2109.

What is called MIC is the lowest concentration that inhibits growth of the organism. On to `CC(C)[C@H](NC(=O)[C@H](CCCCN)NC(=O)[C@H](C)NC(=O)[C@@H](NC(=O)[C@@H](NC(=O)[C@H](CCCN=C(N)N)NC(=O)[C@H](CCCN=C(N)N)NC(=O)[C@H](Cc1c[nH]c2ccccc12)NC(=O)[C@H](C)NC(=O)CN)[C@@H](C)O)C(C)C)C(=O)N[C@@H](CCCN=C(N)N)C(=O)N[C@@H](CCCCN)C(N)=O` [GAWRRTVAKVRK], for which the MIC in [1] was 3.1 µM (≈ 4.42 µg/mL); in test [2], 50 µM (≈ 71.3 µg/mL); in test [3], at least 100 µM; in [4] it was 50 µM (≈ 71.3 µg/mL); against Aureobasidium pullulans, at least 50 µM; in test [5], 200 µM (≈ 285 µg/mL).

Turning to `C[C@H](NC(=O)[C@H](CCCN=C(N)N)NC(=O)[C@H](Cc1c[nH]c2ccccc12)NC(=O)[C@H](CCCN=C(N)N)NC(=O)[C@H](Cc1c[nH]c2ccccc12)NC(=O)[C@H](Cc1c[nH]c2ccccc12)NC(=O)[C@H](Cc1c[nH]c2ccccc12)NC(=O)[C@H](CCCN=C(N)N)NC(=O)[C@H](Cc1c[nH]c2ccccc12)NC(=O)[C@H](CCCN=C(N)N)NC(=O)[C@@H](N)CO)C(N)=O` [SRWRWWWRWRA], the MIC was 2 µM (≈ 3.46 µg/mL) in test [6]; 2 µM (≈ 3.46 µg/mL) in [7]; 4 µM (≈ 6.92 µg/mL) with Escherichia coli K88; 0.5 µM (≈ 0.866 µg/mL) in test [8]; 4 µM (≈ 6.92 µg/mL) in [9]; 2 µM (≈ 3.46 µg/mL) in [10]. For the same compound, the MIC is 0.5 µM (≈ 0.866 µg/mL) in [11]; 1 µM (≈ 1.73 µg/mL) with Escherichia coli UB1005; 2 µM (≈ 3.46 µg/mL) against Acinetobacter baumannii; 2 µM (≈ 3.46 µg/mL) in the test on Escherichia coli 078; 1 µM (≈ 1.73 µg/mL) in [12]; 4 µM (≈ 6.92 µg/mL) in test [13]. The minimum inhibitory concentration (MIC) stood at 1 µM (≈ 1.73 µg/mL) against Escherichia coli K99; 4 µM (≈ 6.92 µg/mL) in [14]; 4 µM (≈ 6.92 µg/mL) in [15]; 8 µM (≈ 13.8 µg/mL) in test [16]; 2 µM (≈ 3.46 µg/mL) in test [5].

Consider `CC(C)C[C@H](NC(=O)[C@H](CCCCN)NC(=O)[C@H](C)NC(=O)[C@H](C)NC(=O)[C@H](C)NC(=O)[C@H](CCCCN)NC(=O)[C@H](C)NC(=O)[C@H](C)NC(=O)[C@H](C)NC(=O)[C@H](CCCCN)NC(=O)[C@H](Cc1c[nH]c2ccccc12)NC(=O)[C@@H](N)CC(C)C)C(=O)N[C@@H](Cc1c[nH]c2ccccc12)C(N)=O` [LWKAAAKAAAKLW], for which the minimal inhibitory concentration (MIC) with Escherichia coli K88 came to 4 µM (≈ 5.71 µg/mL); in test [8], 8 µM (≈ 11.4 µg/mL); in test [17], 8 µM (≈ 11.4 µg/mL); in [10], 32 µM (≈ 45.7 µg/mL); in test [2], 4 µM (≈ 5.71 µg/mL); in test [18] it was 8 µM (≈ 11.4 µg/mL). The MIC (against Escherichia coli UB1005; in [5]) was 8 µM (≈ 11.4 µg/mL) in each case.

In the case of `CC[C@H](C)[C@H](NC(=O)[C@@H](NC(=O)[C@H](CO)NC(=O)[C@H](C)NC(=O)[C@@H](NC(=O)CNC(=O)[C@H](CCCCN)NC(=O)[C@H](CCCCN)NC(=O)[C@@H](NC(=O)[C@@H](NC(=O)[C@H](CC(=O)O)NC(=O)[C@H](Cc1ccccc1)NC(=O)[C@H](CC(C)C)NC(=O)CN)C(C)C)[C@@H](C)CC)C(C)C)C(C)C)C(=O)NCC(=O)NCC(=O)N[C@@H](CC(C)C)C(=O)O` [GLFDVIKKGVASVIGGL], the minimum inhibitory concentration (MIC) in [19] was at least 153 µM; against Escherichia coli K-12, at least 38.3 µM.

`CC[C@H](C)[C@@H]1NC(=O)[C@H]([C@@H](C)O)NC(=O)[C@H](Cc2cnc[nH]2)NC(=O)[C@H](CCCN=C(N)N)NC(=O)[C@H](C)NC(=O)[C@H](CCCN=C(N)N)NC(=O)[C@H](CC(C)C)NC(=O)[C@H](CO)NC(=O)[C@H](C)NC(=O)[C@@H](NC(=O)[C@H](CC(C)C)NC(=O)[C@@H](N)CC(N)=O)CSSC[C@@H](C(=O)N[C@@H](CCCN=C(N)N)C(=O)N[C@@H](CCCCN)C(=O)N[C@@H](Cc2ccccc2)C(=O)NCC(=O)N[C@@H](CCCN=C(N)N)C(=O)N[C@@H](CCCN=C(N)N)C(=O)O)NC(=O)[C@H](CCC(N)=O)NC(=O)[C@@H]2CCCN2C1=O` [NLCASLRARHTIPQCRKFGRR]: the MIC in [20] was determined as 25 µM (≈ 62 µg/mL); in [21] it was 12.5 µM (≈ 31 µg/mL); in [22], 12.5 µM (≈ 31 µg/mL); in [23], 12.5 µM (≈ 31 µg/mL); in test [24], 12.5 µM (≈ 31 µg/mL); in [25] it was 12.5 µM (≈ 31 µg/mL). Also, the MIC is 12.5 µM (≈ 31 µg/mL) in [26]; at least 50 µM in test [27]; 12.5 µM (≈ 31 µg/mL) in test [28]; 12.5 µM (≈ 31 µg/mL) in [29]; 25 µM (≈ 62 µg/mL) in test [30].

Take `CC[C@H](C)[C@H](NC(=O)[C@H](C)NC(=O)[C@H](CCCN=C(N)N)NC(=O)[C@H](Cc1ccc(O)cc1)NC(=O)[C@H](CC(C)C)NC(=O)[C@H](CCCCN)NC(=O)[C@H](Cc1ccc(O)cc1)NC(=O)CNC(=O)[C@H](C)NC(=O)[C@H](CCCN=C(N)N)NC(=O)[C@@H](NC(=O)[C@H](Cc1c[nH]c2ccccc12)NC(=O)[C@H](CCCN=C(N)N)NC(=O)[C@@H](NC(=O)[C@@H](NC(=O)[C@@H](N)CC(C)C)C(C)C)[C@@H](C)CC)C(C)C)C(=O)N[C@@H](CCCCN)C(=O)N[C@@H](CCCCN)C(=O)N[C@@H](CCCCN)C(N)=O` [LVIRWVRAGYKLYRAIKKK]: the MIC in test [20] was 4 µM (≈ 9.44 µg/mL); in test [21] it was 8 µM (≈ 18.9 µg/mL); in test [22] it was 4 µM and 8 µM; in test [31] it was 4 µM (≈ 9.44 µg/mL); in [23] it was 4 µM (≈ 9.44 µg/mL); in test [24], 4 µM (≈ 9.44 µg/mL). Besides, the MIC in test [25] is 2 µM (≈ 4.72 µg/mL); in test [26], 2 µM and 4 µM; in test [27] it was 2 µM (≈ 4.72 µg/mL); in test [28], 2 µM (≈ 4.72 µg/mL); in test [29] it was 2 µM (≈ 4.72 µg/mL); in test [30], 2 µM (≈ 4.72 µg/mL).

Consider `C[C@H](NC(=O)[C@H](CCCN=C(N)N)NC(=O)[C@H](Cc1c[nH]c2ccccc12)NC(=O)[C@H](CCCN=C(N)N)NC(=O)[C@H](Cc1c[nH]c2ccccc12)NC(=O)[C@H](Cc1c[nH]c2ccccc12)NC(=O)[C@H](Cc1c[nH]c2ccccc12)NC(=O)[C@H](CCCN=C(N)N)NC(=O)[C@H](Cc1c[nH]c2ccccc12)NC(=O)[C@H](CCCN=C(N)N)NC(=O)[C@@H](N)[C@@H](C)O)C(N)=O` [TRWRWWWRWRA], for which the MIC in [6] came to 1 µM (≈ 1.75 µg/mL); in test [7], 2 µM (≈ 3.49 µg/mL); in the test on Escherichia coli K88 it was 2 µM (≈ 3.49 µg/mL); in test [8], 1 µM (≈ 1.75 µg/mL); in test [9], 8 µM (≈ 14 µg/mL); in test [10] it was 1 µM (≈ 1.75 µg/mL). Besides, the MIC in test [11] turned out to be 1 µM (≈ 1.75 µg/mL); in the test on Escherichia coli UB1005, 1 µM (≈ 1.75 µg/mL); in the test with Acinetobacter baumannii, 2 µM (≈ 3.49 µg/mL); against Escherichia coli 078, 2 µM (≈ 3.49 µg/mL); in test [12], 1 µM (≈ 1.75 µg/mL); in [13] it was 16 µM (≈ 27.9 µg/mL). The MIC worked out at 2 µM (≈ 3.49 µg/mL) against Escherichia coli K99; 2 µM (≈ 3.49 µg/mL) in [14]; 4 µM (≈ 6.98 µg/mL) in test [15]; 16 µM (≈ 27.9 µg/mL) in test [16]; 2 µM (≈ 3.49 µg/mL) in [5].
